Like-named read-outs stand apart in the source and are kept apart here.
Legend:
[1] = test system: N87 (human gastric (stomach) cancer cell line); assay: 72 hr ATP luminescence proliferation inhibition, N87; type: cell-based; conditions: read-out: Proliferation Inhibition of Cancer Cells EC50, N87
Method: (§1) Proliferation inhibition was measured using a 72 hr ATP luminescence assay (Cheng et al., U.S. Pat. No. 8,394,922 B2 (2013)).
(§2) Proliferation inhibition was measured against: (a) H226 (human mesothelioma (lung) cancer cell line); (b) N87 (human gastric (stomach) cancer cell line); (c) OVCAR3 (human ovarian cancer cell line); (d) HCT116 (human colon cancer cell line); and (e) HCT116/VM46 (multidrug and paclitaxel resistant subline of HCT116).

[2] = test system: H226 (human mesothelioma (lung) cancer cell line); assay: 72 hr ATP luminescence proliferation inhibition, H226; type: cell-based
Method: as §1, §2

[3] = test system: HCT116/VM46 (multidrug and paclitaxel resistant subline of HCT116); assay: 72 hr ATP luminescence proliferation inhibition, HCT116/VM46; type: cell-based, human; conditions: read-out: Proliferation Inhibition of Cancer Cells EC50, HCT116/VM46
Method: as §1, §2

[4] = test system: OVCAR3 (human ovarian cancer cell line); assay: 72 hr ATP luminescence proliferation inhibition, OVCAR3; type: cell-based
Method: as §1, §2

[5] = test system: HCT116 (human colon cancer cell line); assay: 72 hr ATP luminescence proliferation inhibition, HCT116; type: cell-based
Method: as §1, §2

[6] = Homo sapiens, NCI-H226, read-out: Proliferation Inhibition of Cancer Cells EC50, H226
[7] = Homo sapiens, HCT-116/VM46, HCT116/VM46 cell line
[8] = Homo sapiens, OVCAR-3, read-out: Proliferation Inhibition of Cancer Cells EC50, OVCAR3
[9] = Homo sapiens, HCT-116, read-out: Proliferation Inhibition of Cancer Cells EC50, HCT116
[10] = read-out: Proliferation Inhibition of Cancer Cells EC50, H226
[11] = read-out: Proliferation Inhibition of Cancer Cells EC50, OVCAR3
[12] = read-out: Proliferation Inhibition of Cancer Cells EC50, HCT116

Compound	EC50 ([1]; Homo sapiens) [nM]	EC50 [2, 6] [nM]	EC50 [3, 7] [nM]	EC50 [4, 8] [nM]	EC50 [5, 9] [nM]	EC50 ([3]; HCT116/VM46 cell line) [nM]	EC50 [2, 10] [nM]	EC50 [4, 11] [nM]	EC50 [5, 12] [nM]	EC50 [1] [nM]
CN(C)CCOc1ccc2[nH]c(C(=O)N3C[C@@H](CCl)c4c3cc(O)c3[nH]c(C(=O)N5CCOCC5)cc43)cc2c1 [Ia-16]	0.5	0.4								
Nc1ccc2[nH]c(C(=O)Nc3ccc4[nH]c(C(=O)N5C[C@@H](CCl)c6c5cc(O)c5[nH]c(C(=O)N7CCOCC7)cc65)cc4c3)cc2c1 [Ic-01]	1.5	0.91	0.75	0.89	0.43					
CNCCN(CCOCCO)C(=O)c1cc2c3c(cc(O)c2[nH]1)N(C(=O)c1cc2cc(OC)ccc2[nH]1)C[C@H]3CCl [Ia-24]						250	250	250	250	
O=C(c1cc2c3c(cc(O)c2[nH]1)N(C(=O)c1cc2cc(OCC4CC4)ccc2[nH]1)C[C@H]3CCl)N1CCOCC1 [Ia-04]	0.15	0.11	0.12	0.11	0.12					
O=C(c1cc2c3c(cc(O)c2[nH]1)N(C(=O)c1cc2cc(OCCC4CC4)ccc2[nH]1)C[C@H]3CCl)N1CCOCC1 [Ia-07]	0.81	0.72	0.67	0.41	0.67					
COc1cc2cc(C(=O)N3C[C@@H](CCl)c4c3cc(O)c3[nH]c(C(=O)N5CCOCC5)cc43)[nH]c2c(OC)c1OC [Ia-30]	0.045	0.018	0.097	0.032	0.033					
CC(C)Oc1ccc2[nH]c(C(=O)N3C[C@@H](CCl)c4c3cc(O)c3[nH]c(C(=O)N5CCOCC5)cc43)cc2c1 [Ia-13]	0.48	0.32	0.24	0.12	0.18					
CC(C)COc1ccc2[nH]c(C(=O)N3C[C@@H](CCl)c4c3cc(O)c3[nH]c(C(=O)N5CCOCC5)cc43)cc2c1 [Ia-05]	0.21	0.18	0.17	0.076	0.17					
O=C(c1cc2c3c(cc(O)c2[nH]1)N(C(=O)c1cc2cc(OCCO)ccc2[nH]1)C[C@H]3CCl)N1CCOCC1 [Ia-08]	1.3	3.4		2.1						
COCCOc1ccc2[nH]c(C(=O)N3C[C@@H](CCl)c4c3cc(O)c3[nH]c(C(=O)Nc5ccc(N)cc5)cc43)cc2c1 [Ia-29]							0.63			0.26
CN(C)CCOc1ccc2[nH]c(C(=O)N3C[C@@H](CCl)c4c3cc(O)c3[nH]c(C(=O)Nc5ccc(O)cc5)cc43)cc2c1 [Ia-27]							1.4			3.5
O=C(c1cc2c3c(cc(O)c2[nH]1)N(C(=O)c1cc2cc(OCC4CCCCC4)ccc2[nH]1)C[C@H]3CCl)N1CCOCC1 [Ia-10]	0.15	0.25								
O=C(c1cc2c3c(cc(O)c2[nH]1)N(C(=O)c1cc2cc(OC4CCC4)ccc2[nH]1)C[C@H]3CCl)N1CCOCC1 [Ia-06]						0.36	0.47	0.32	0.36	0.56
O=C(Nc1ccc2[nH]c(C(=O)N3C[C@@H](CCl)c4c3cc(O)c3[nH]c(C(=O)N5CCOCC5)cc43)cc2c1)c1ccc(O)cc1 [Id-01]	2.3			1.1	0.93					
Nc1ccc2[nH]c(C(=O)N3C[C@@H](CCl)c4c3cc(O)c3[nH]c(C(=O)N5CCOCC5)cc43)cc2c1 [Ia-19]	3.1	4.2	3.5	1.1	3.2					
CCCOc1ccc2[nH]c(C(=O)N3C[C@@H](CCl)c4c3cc(O)c3[nH]c(C(=O)N5CCOCC5)cc43)cc2c1 [Ia-03]	0.048	0.038	0.034	0.026	0.034					
COc1ccc2[nH]c(C(=O)N3C[C@@H](CCl)c4c3cc(O)c3[nH]c(C(=O)N5CCN(C)CC5)cc43)cc2c1 [Ia-20]						2.6	6.5	1.5	1.9	3.5
CC(C)CCOc1ccc2[nH]c(C(=O)N3C[C@@H](CCl)c4c3cc(O)c3[nH]c(C(=O)N5CCOCC5)cc43)cc2c1 [Ia-31]						0.86	0.24	0.53	0.62	0.43

From patent US10287291B2, “Seco-cyclopropapyrroloindole compounds, antibody-drug conjugates thereof, and methods of making and use” (priority 2016, dated 2019)
